The source of these data is patent US8981112B2, “Inhibitors of β-secretase” (Boehringer Ingelheim International GmbH, priority 2012, dated 2015).

Series [1] deals with truncated human beta-secretase, BACE1 (amino acids 1-454) (Homo sapiens (Human), UniProt P56817). Kind of series: BACE1 Assay (Assay 1), fluorescence quench assay. The class given is biochemical. Particulars: read-out: BACE1 IC50 nM (assay 1). The procedure: The substrate was dissolved at 1 mg/ml in DMSO.
The assay was performed in the presence of OptiMEM (supernatant collected over 24 h and cleared from cellular debris by centrifugation) containing the ectodomain of BACE1, 25 μl water containing the desired 2-fold concentration of test compound and 2% DMSO, 1 μM substrate peptide, 20 mM NaOAc, pH 4.4, and 0.04% Triton-X100 in a total assay volume of 50 μl in a 384 well plate. In general, 25 μl of compound dilution were given to the plate followed by the addition of 10 μl of BACE1 containing OptiMEM™ diluted 1:10 in water with 0.2% Triton X-100. The reaction was started with the addition of 15 μl substrate in NaOAc buffer. The reaction was incubated at rt (dark) in an Envision® multilabel reader (Perkin Elmer) and the cleavage of the substrate was recorded as kinetic for 60 min at ex: 485 nm, em: 538 nm. Blank wells containing no enzyme were included on each plate.
The intensity of fluorescence was regressed against time in order to derive velocities of reaction in all 384 wells. These velocities were used for calculating percent control using an uninhibited control containing 1% DMSO as 100% and blank control performed in the absence of enzyme as 0%. IC50 values were calculated by fitting percent control vs. test compound concentration using Assay Explorer.

A short description of series [2]: In Vitro Phospholipidosis Assay (Assay 4), Nile red staining. The class given is cell-based. Particulars: human, first effect concentration, U937 cells, read-out: Phospholipidosis FEC IC50 μM (assay 4). The procedure:
In Vitro Phospholipidosis Assay (Assay 4)
The phospholipidogenic potential of test compounds was assayed using the human hematopoetic U937 cell line. The test principle was to analyze the phospholipid content by staining the cells with the fluorescent dye Nile red.
U937 cells were seeded into cell culture plates at 0.5×10^6 cells/mL in RPMI medium containing 10% FBS, 1% DMSO, and 0.005% gentamicin. The cells were then cultivated with or without different concentrations of test compounds for 48 h under standard culture conditions.
For harvesting the cells were centrifuged at 130×g for 4 min and washed once with PBS. Then 2×0.5 mL cell suspension was prepared for non-fixed cell measurement (0.5 mL for propidium iodide (PI) viability measurement and 0.5 mL for Nile red measurement).
The remaining cells were fixed with 3.7% formaldehyde for 30 min. After a further centrifugation step cells were resuspended with 1.3 mL Nile red working solution (1 μg/mL) and incubated for 5 min at rt. The cell suspension was then washed twice with 3 mL PBS and centrifuged with 130×g for 4 min. The supernatant was discarded and the cells were resuspended with 0.5 mL PBS and kept for flow cytometry measurement. For Nile red staining of the 0.5 mL non-fixed cell samples, 50 μL of a ready to use Nile red solution (10 μg/mL) were added per sample. Samples were kept on ice for 5 min. Thereafter, they were washed once with 4 mL PBS (4° C., 250×g for 8 min) and finally resuspended in 400 μL PBS and kept for flow cytometry measurement.
For the viability measurement, 12.5 μL of the ready to use PI solution (10 μg/mL) were added to the 0.5 mL non-fixed cell suspension. After 15 min of incubation on ice, the samples were measured by flow cytometry using a Coulter Epics XL/MCL flow cytometer.
The viability of the cells of each sample was determined by flow cytometry measurement of the PI content at channel 2 (568-590 nm). Cut-off gates for the fluorescence-dependent differentiation between live and dead cells were defined based on the analysis of cell culture medium control samples.
Only samples with a cell viability of >=90% relative to control samples were analyzed for phospholipidosis. For that, each Nile red sample (non-fixed and fixed samples) was measured by flow cytometry at channel 1 (504-541 nm) and channel 4 (660-680 nm).
For each channel, relative Nile red fluorescence intensity of a test sample was calculated compared to control samples and expressed as percentage of control fluorescence intensity. The assessment of the phospholipidogenic potential and the first effect concentration (FEC) of a test compound was done manually based on the fluorescence intensities at both wavelengths for the fixed cells as well as for the non-fixed cells.

truncated human beta-secretase, BACE1 (amino acids 1-454), sequence (P56817 22-454): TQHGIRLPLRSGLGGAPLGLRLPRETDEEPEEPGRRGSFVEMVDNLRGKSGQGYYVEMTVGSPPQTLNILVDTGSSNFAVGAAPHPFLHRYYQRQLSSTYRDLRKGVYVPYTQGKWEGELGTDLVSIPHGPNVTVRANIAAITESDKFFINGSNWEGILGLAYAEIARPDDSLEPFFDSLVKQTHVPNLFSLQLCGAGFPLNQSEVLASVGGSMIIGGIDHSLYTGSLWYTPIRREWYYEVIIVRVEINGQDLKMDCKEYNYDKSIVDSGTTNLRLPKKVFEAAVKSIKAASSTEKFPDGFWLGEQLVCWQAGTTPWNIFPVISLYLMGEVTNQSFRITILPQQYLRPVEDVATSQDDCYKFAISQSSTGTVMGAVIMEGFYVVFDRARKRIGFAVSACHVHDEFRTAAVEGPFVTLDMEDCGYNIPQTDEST

Turning to `CO[C@H]1CC[C@@]2(Cc3ccc(C#N)cc3[C@]23N=C(N)N(CC2(C)COC2)C3=O)C[C@@H]1C` [Example 8], the IC50 in series [1] is 5 nM. In series [2], the IC50 at 48 h is greater than 200 µM.
The matching figures for `CO[C@H]1[C@H](C)C[C@@]2(Cc3ccc(C#N)cc3[C@]23N=C(N)N(C2COC2)C3=O)C[C@@H]1C` [Example 12]: 3 nM and 400 µM.
On the same counts, the results for `CC[C@@H]1C[C@]2(CC[C@H]1OC)Cc1ccc(C#N)cc1[C@]21N=C(N)N(CC2(F)CCOCC2)C1=O` [Example 4] are 5 nM and greater than 400 µM.
The matching figures for `CO[C@H]1[C@H](C)C[C@@]2(Cc3ccc(C#N)cc3[C@]23N=C(N)N(C[C@@H]2COCCO2)C3=O)C[C@@H]1C` [Example 21]: 5 nM and 400 µM.
Turning to `CO[C@H]1[C@H](C)C[C@@]2(Cc3ccc(C#N)cc3[C@]23N=C(N)N(CC2(F)CCOCC2)C3=O)C[C@@H]1C` [Example 23], the concentration for half-maximal inhibition (IC50) in series [1] was determined as 12 nM. Further, in series [2], the IC50 at 48 h is greater than 200 µM.
The matching figures for `CO[C@H]1[C@H](C)C[C@@]2(Cc3ccc(C#N)cc3[C@]23N=C(N)N(C[C@@H]2CCO2)C3=O)C[C@@H]1C` (stereo in doubt) [Example 18]: 9 nM and greater than 400 µM.
On the same counts, the results for `CO[C@H]1[C@H](C)C[C@@]2(Cc3ccc(C#N)cc3[C@]23N=C(N)N(C[C@@H]2CCCO2)C3=O)C[C@@H]1C` [Example 15] are 11 nM and 200 µM.
The matching figures for `CO[C@H]1[C@H](C)C[C@@]2(Cc3ccc(C#N)cc3[C@]23N=C(N)N(C[C@H]2CCCO2)C3=O)C[C@@H]1C` [Example 14]: 5 nM and greater than 200 µM.
Take `CO[C@H]1CC[C@@]2(Cc3ccc(C#N)cc3[C@]23N=C(N)N(Cc2ccncn2)C3=O)C[C@@H]1C` [Example 9]: in series [1], the IC50 was 9 nM. Further, the IC50 at 48 h in series [2] is 400 µM.
On the same counts, the results for `CO[C@H]1[C@H](C)C[C@@]2(Cc3ccc(C#N)cc3[C@]23N=C(N)N(CC(C)(C)F)C3=O)C[C@@H]1C` [Example 17] are 14 nM and greater than 200 µM.
As to `CO[C@H]1[C@H](C)C[C@@]2(Cc3ccc(C#N)cc3[C@]23N=C(N)N(CC2COC2)C3=O)C[C@@H]1C` [Example 13], the IC50 in series [1] is 9 nM. In addition, the IC50 at 48 h in series [2] worked out at 200 µM.
On the same counts, the results for `CO[C@H]1[C@H](C)C[C@@]2(Cc3ccc(C#N)cc3[C@]23N=C(N)N(C[C@H]2COCCO2)C3=O)C[C@@H]1C` [Example 22] are 8 nM and greater than 400 µM.
As for `CC[C@@H]1C[C@@]2(Cc3ccc(C#N)cc3[C@]23N=C(N)N(CC(C)(C)F)C3=O)C[C@H](C)[C@H]1OC` [Example 26], the IC50 in series [1] amounted to 9 nM. Besides, the IC50 at 48 h in series [2] is greater than 200 µM.
On to `CC[C@@H]1C[C@]2(CC[C@H]1OC)Cc1ccc(C#N)cc1[C@]21N=C(N)N(CC2CCOCC2)C1=O` [Example 2], for which the IC50 in series [1] was found to be 8 nM. For the same compound, the IC50 at 48 h in series [2] stood at 200 µM.
